# Literature values in patent publication US20250333714A1, “ARTIFICIAL DNA REPLISOME AND METHODS OF USE THEREOF” (Regents of the University of Minnesota, priority 2021, published 2025).
# Tested on: DNA
# Settings: cited from earlier work
substance,measurement,value
"E. coli PolA: E. coli DNA polymerase I, slower than Rep helicase",speed of DNA unwinding or DNA synthesis,~15 base-pairs/s
